Here are results for two compounds from ChEMBL document CHEMBL5725581, “Compounds and compositions for treating HIV with derivatives of Betulin” (2018).

The assay is described as follows: MT4 Cell Antiviral Assay: Antiviral HIV activity and compound-induced cytotoxicity were measured in parallel by means of a propidium iodide based procedure in the human T-cell lymphotropic virus transformed cell line MT4. Aliquots of the test compounds were serially diluted in medium (RPMI 1640, 10% fetal calf serum (FCS), and gentamycin) in 96-well plates (Costar 3598) using a Cetus Pro/Pette. ….

In general, EC50 refers to the concentration needed to bring the measured effect to its halfway point. Read a high EC50 as a need for much substance.

Description: MT4 Cell Antiviral Assay: Antiviral HIV activity and compound-induced cytotoxicity were measured in parallel by means of a propidium iodide based procedure in the human T-cell lymphotropic virus transformed cell line MT4. […] Exponentially growing MT4 cells were harvested and centrifuged at 1000 rpm for 10 min in a Jouan centrifuge (model CR 4 12). […] Cell infection was allowed to proceed for 1 hr at 37° C. in a tissue culture incubator with humidified 5% CO2 atmosphere. After the 1 hr incubation the virus/cell suspensions were diluted 6-fold with fresh medium, and 125 μl of the cell suspension was added to each well of the plate containing pre-diluted compound. Plates were then placed in a tissue culture incubator with humidified 5% CO2 for 5 days. […] After thorough mixing with a Costar multitip pipetter, 60 μl of the mixture was transferred to filter-bottomed 96-well plates. The plates were analyzed in an automated assay instrument (Screen Machine, Idexx Laboratories). The control and standard used was 3′-azido-3′-deoxythymidine tested over a concentration range of 0.01 to 1 μM in every assay. […] The assay makes use of a propidium iodide dye to estimate the DNA content of each well.For MTS readout, 20 μl CellTiter 96 AQ One Solution reagent (Promega #G3582) was added to each well.

As for `CC(C)C1=C2[C@H]3CC[C@@H]4[C@@]5(C)CC[C@H](OC(=O)CC(C)(C)CC(=O)O)C(C)(C)[C@@H]5CC[C@@]4(C)[C@]3(C)CC[C@@]2([C@H](O)CNCc2ccc(Cl)cc2)CC1=O`, the EC50 was 0.104 µM. Under “MT4, 10 min”, `CC(C)NC[C@H](O)[C@@]12CC[C@]3(C)[C@H](CC[C@@H]4[C@@]5(C)CC[C@H](OC(=O)CC(C)(C)C(=O)O)C(C)(C)[C@@H]5CC[C@]43C)C1=C(C(C)C)C(=O)C2` displayed an EC50 of 0.0315 µM.
